Some test systems named below: Escherichia coli 37; Klebsiella pneumoniae; Pseudomonas aeruginosa; Shigella dysenteriae; Staphylococcus aureus 37; Escherichia coli BW25113; Escherichia coli.
Assay in all cases: ≥ marks a high value that may be exact or a test limit, other limits are often not marked, values filed in µg/mL are converted to µM
Test [1] deals with Listeria monocytogenes EGD.
For test [2], the system named is Pseudomonas aeruginosa 253.
The subject of test [3] is Pseudomonas aeruginosa 910.
For test [4], the system named is Pseudomonas aeruginosa 919.
Test [5] has as its system Pseudomonas aeruginosa PAO1.
The test system of test [6] is Candida albicans ATCC 2002.
Test [7] relates to Candida albicans ATCC 90028.
Test [8] has as its system Candida parapsilosis ATCC 22019.
The subject of test [9] is Enterobacter cloacae ATCC 13047.
In test [10] the test system is Enterococcus faecalis ATCC 29212.
In test [11] the test system is Escherichia coli ATCC 25922.
The subject of test [12] is Klebsiella pneumoniae ATCC 700603.
The test system of test [13] is Pseudomonas aeruginosa ATCC 27853.
Test [14] deals with Pseudomonas aeruginosa CMCCB 1010.
The subject of test [15] is Staphylococcus aureus ATCC 25923.
Test [16] concerns Acinetobacter baumannii ATCC 19606.
Test [17] relates to Acinetobacter baumannii ATCC BAA-1605.
For test [18], the system named is Acinetobacter baumannii CR17.
Test [19] deals with Enterococcus faecium ATCC 700221.
Test [20] has as its system Staphylococcus aureus ATCC 33591.
The test system of test [21] is Bacillus subtilis DSM 347.
The test system of test [22] is Escherichia coli DSM 1116.
Test [23] relates to Franconibacter helveticus DSM 18390.
Test [24] relates to Staphylococcus xylosus DSM 20267.
For test [25], the system named is Escherichia coli BW25113 ΔsbmA.
Test [26] deals with Aspergillus oryzae NBRC 100959.
Test [27] relates to Candida viswanathii NBRC 10321.
Test [28] deals with Escherichia coli NBRC 3972.
In test [29] the test system is Micrococcus luteus NBRC 3333.
For test [30], the system named is Staphylococcus epidermidis NBRC 12993.
Test [31] has as its system Klebsiella pneumoniae E406-17.
Test [32] concerns Pseudomonas aeruginosa E411-17.
Test [33] relates to Staphylococcus aureus M838-17.

Converted amounts (≈) assume the structure as drawn. Some results are limits rather than exact numbers.

For the compound `CC[C@H](C)[C@H](NC(=O)[C@H](Cc1cnc[nH]1)NC(=O)[C@@H](NC(=O)[C@H](CCCN=C(N)N)NC(=O)[C@H](CCCCN)NC(=O)[C@H](CCCN=C(N)N)NC(=O)[C@H](CCCCN)NC(=O)[C@H](CC(N)=O)NC(=O)[C@H](Cc1ccc(O)cc1)NC(=O)[C@H](CC(N)=O)NC(=O)[C@@H]1CCCN1C(=O)[C@H](CCCN=C(N)N)NC(=O)[C@@H](NC(=O)[C@@H](N)CS)[C@@H](C)O)[C@@H](C)CC)C(=O)NCC(=O)O` [CTRPNYNKRKRIHIG], the MIC (in general, the lowest concentration that inhibits growth of the organism) in [1] stood at 5.76 µM (≈ 10.7 µg/mL).

Turning to `CC[C@H](C)[C@H](NC(=O)[C@@H](N)Cc1ccccc1)C(=O)N[C@@H](CCCCN)C(=O)N[C@@H](CCCN=C(N)N)C(=O)N[C@@H](CCCCN)C(=O)N[C@@H](CO)C(=O)N[C@@H](CCCN=C(N)N)C(=O)N[C@@H](Cc1c[nH]c2ccccc12)C(=O)N[C@@H](Cc1c[nH]c2ccccc12)C(=O)N[C@@H](CCCCN)C(=O)N[C@@H](Cc1c[nH]c2ccccc12)C(=O)N[C@@H](CCCN=C(N)N)C(=O)N[C@H](C(N)=O)[C@@H](C)O` [FIKRKSRWWKWRT], the MIC is 11.3 µM (≈ 21.2 µg/mL) in test [2], 8 µM (≈ 15 µg/mL) in [3], at least 32 µM in test [4] and 4 µM (≈ 7.51 µg/mL) in [5].

For the compound `CC[C@H](C)[C@H](NC(=O)[C@@H](NC(=O)[C@@H]1CCCN1C(=O)[C@H](CC(C)C)NC(=O)[C@@H](N)Cc1ccccc1)[C@@H](C)CC)C(=O)NCC(=O)N[C@@H](CCCCN)C(=O)N[C@@H](CC(C)C)C(=O)N[C@@H](CC(C)C)C(=O)N[C@@H](CO)C(=O)NCC(=O)N[C@@H](CC(C)C)C(=O)N[C@@H](CC(C)C)C(=O)O` [FLPIIGKLLSGLL], the MIC in [6] is 7.23 µM (≈ 10 µg/mL); in [7], 7.23 µM (≈ 10 µg/mL); in test [8], 1.81 µM (≈ 2.5 µg/mL); in [9] it was 1.81 µM (≈ 2.5 µg/mL); in test [10], 3.61 µM (≈ 5 µg/mL); with Escherichia coli 37 it was 14.5 µM (≈ 20 µg/mL). Moreover, the MIC in test [11] was 1.81 µM (≈ 2.5 µg/mL); in test [12], 7.23 µM (≈ 10 µg/mL); with Klebsiella pneumoniae, 28.9 µM (≈ 40 µg/mL); in test [13], 28.9 µM (≈ 40 µg/mL); in test [14] it was 7.23 µM (≈ 10 µg/mL); in the test with Pseudomonas aeruginosa, 3.61 µM (≈ 5 µg/mL). The figures for the MIC (against Shigella dysenteriae; against Staphylococcus aureus 37; in test [15]) were 14.5 µM (≈ 20 µg/mL), 3.61 µM (≈ 5 µg/mL) and 0.867 µM (≈ 1.2 µg/mL), respectively.

Turning to `CC[C@H](C)[C@H](NC(=O)[C@H](CCCCN)NC(=O)[C@H](CCCCN)NC(=O)[C@H](Cc1ccccc1)NC(=O)[C@H](CC(C)C)NC(=O)[C@H](CCCCN)NC(=O)[C@@H](N)CCCCN)C(=O)N[C@@H](CC(C)C)C(=O)N[C@@H](CCCN=C(N)N)C(=O)N[C@@H](Cc1ccc(O)cc1)C(=O)N[C@@H](CC(C)C)C(N)=O` [KKLFKKILRYL], the MIC in [16] was 5.86 µM (≈ 8.49 µg/mL); in [17], 2.76 µM (≈ 4 µg/mL); in test [18] it was at least 32.7 µM; in test [19], 5.86 µM (≈ 8.49 µg/mL); in [11], 5.86 µM (≈ 8.49 µg/mL); in test [12], 5.86 µM (≈ 8.49 µg/mL). Also, the figures for the MIC in test [13] and in test [20] were 11.7 µM (≈ 17 µg/mL) and 23.1 µM (≈ 33.5 µg/mL), respectively.

Regarding `CC(C)C[C@H](NC(=O)[C@H](CCCCN)NC(=O)[C@H](CC(C)C)NC(=O)[C@H](CCCCN)NC(=O)[C@H](CC(C)C)NC(=O)[C@H](CCCCN)NC(=O)[C@H](CC(C)C)NC(=O)[C@H](CCCCN)NC(=O)[C@H](CC(C)C)NC(=O)[C@H](CCCCN)NC(=O)[C@H](CC(C)C)NC(=O)[C@H](CCCCN)NC(=O)[C@H](CC(C)C)NC(=O)[C@@H](N)CCCCN)C(N)=O` [KLKLKLKLKLKLKL], the MIC in test [21] was 2.34 µM (≈ 4 µg/mL); in test [22], 4.69 µM (≈ 8 µg/mL); in [23], 2.34 µM (≈ 4 µg/mL); in test [24], 2.34 µM (≈ 4 µg/mL).

`CC[C@H](C)[C@H](NC(=O)[C@@H]1CCCN1C(=O)[C@@H]1CCCN1C(=O)[C@H](CCCN=C(N)N)NC(=O)[C@H](Cc1ccccc1)NC(=O)[C@@H](N)CCCN=C(N)N)C(=O)N[C@@H](CCCN=C(N)N)C(=O)N[C@@H](CCCN=C(N)N)C(=O)N1CCC[C@H]1C(=O)N1CCC[C@H]1C(=O)N[C@H](C(=O)N[C@@H](CCCN=C(N)N)C(=O)N1CCC[C@H]1C(=O)N1CCC[C@H]1C(=O)N[C@@H](Cc1ccccc1)C(=O)N[C@@H](Cc1ccc(O)cc1)C(=O)N[C@@H](CCCN=C(N)N)C(=O)O)[C@@H](C)CC` [RFRPPIRRPPIRPPFYR]: the MIC in test [16] is 64 µM (≈ 142 µg/mL); in test [25] it was at least 64 µM; in the test on Escherichia coli BW25113 it was 8 µM (≈ 17.8 µg/mL); against Escherichia coli, 4 µM (≈ 8.89 µg/mL); in [12] it was above 64 µM; in [13], above 64 µM. Besides, in test [15], the minimum inhibitory concentration (MIC) is above 64 µM.

On to `CC[C@H](C)[C@H](NC(=O)[C@H](CCSC)NC(=O)[C@H](CCCN=C(N)N)NC(=O)[C@H](CCCN=C(N)N)NC(=O)[C@H](CC(C)C)NC(=O)[C@H](Cc1ccc(O)cc1)NC(=O)[C@H](CCCN=C(N)N)NC(=O)[C@H](CCCCN)NC(=O)[C@@H](NC(=O)[C@H](CCCCN)NC(=O)[C@@H](N)CCCN=C(N)N)[C@@H](C)CC)C(=O)N[C@@H](Cc1c[nH]c2ccccc12)C(=O)O` [RKIKRYLRRMIW], for which the MIC in [26] was 7.27 µM (≈ 12.5 µg/mL); in [27], 14.5 µM (≈ 25 µg/mL); in [28], at least 116 µM; in [29], 14.5 µM (≈ 25 µg/mL); in test [30] it was 14.5 µM (≈ 25 µg/mL).

Consider `CC(C)C[C@H](NC(=O)[C@H](Cc1c[nH]c2ccccc12)NC(=O)[C@H](Cc1c[nH]c2ccccc12)NC(=O)[C@H](Cc1c[nH]c2ccccc12)NC(=O)[C@H](CCCN=C(N)N)NC(=O)[C@H](CCCN=C(N)N)NC(=O)[C@H](CCCN=C(N)N)NC(=O)[C@@H](N)CCCN=C(N)N)C(N)=O` [RRRRWWWL], for which the MIC in test [31] was at least 50 µM; in test [32], 12.5 µM (≈ 16.4 µg/mL); in test [33], 6.25 µM (≈ 8.21 µg/mL).

These data come from DBAASP.
